Measured values taken from patent US20180252703A1, “AN IN VITRO 3D CELL CULTURE MODEL-BASED TUMOR RELAPSE ASSAY” (INSPHERO AG, priority 2015, published 2018).

Legend:
[1] = test system: HCT-116 3D InSight colorectal cancer microtissues; assay: Dose response of HCT-116 3D microtissues by size (area) after 5 days of compound exposure; type: cell-based; details: Homo sapiens, HCT-116, 120 h; tissue size (area), after 5 days exposure
Protocol: After microtissue formation, spheroids were transferred into GravityTRAP™ plates for further experiments. Medium was refreshed at days 4, 6 and 8 post-transfer to assay plates.
From the stock solutions, two-fold serial dilutions in DMSO were prepared for each compound, leading to 200× concentrated working dilutions.
(§1) Microtissues were treated in GravityTRAP™ plates with the indicated compound dilutions (n=4), leading to 0.5% DMSO in the cell culture medium. As a control, microtissues were exposed to 0.5% DMSO without a compound. Upon medium exchange, compounds were re-added where indicated. The treatment was performed over 10 days, however, for 2 tissues per group, the compound exposure was discontinued after 5 days and they were thereafter incubated in medium without compound (n=2).
IC20 and IC50 values were determined by plotting the tissue size over the compound concentration after incubation over 5 days.
(§2) GravityTRAP™ plates containing treated microtissues were scanned with Cell^3iMager (Dainippon, Japan) with a resolution of 4800 dpi. Microtissue size was assessed with the software provided by the manufacturer.
(§3) Air bubbles interfering with the size analysis were excluded manually, either by adjusting the image section to be analyzed by the software or by cropping the area designated to a microtissue after size measurement. The acquired data was normalized to the non-treated control (S=size of microtissue).
Dose response based on the size (area) of the tumor microtissue were used to define IC20, IC50 and the lowest maximum response concentration [nM].

[2] = test system: HCT-116 3D InSight colorectal cancer microtissues; assay: Tumor relapse assay: 5-day pulsed versus 10-day continuous treatment of HCT-116 microtissues, read by size and intra-tissue ATP, relapse index ReI; type: cell-based; details: for ReI at IC50, times higher than at IC20: ReI at IC50 relative to ReI at IC20; for tumor relapse index (ReI): 5-day pulsed treatment, growth profiles over 10 days; for growth after the 5-day treatment: at the respective IC50 concentration; for tumor re-growth after removing the compound after a 5-day treatment: lower drug concentrations: 6 nM taxol, 50 nM doxorubicin, 125 nM staurosporine, size or intra-tissue ATP content; for phenotype of re-growth after drug removal: phenotypic analysis, taxol at low concentrations (6 nM)
Protocol: as §1, §2, §3
In order to determine the number of viable cells per microtissue, the amount of intracellular ATP as a measure for metabolic activity was determined by using CellTiter-Glo® Luminescent Cell Viability Assay (Promega; Madison, USA). The assay was performed according to the manufacturer's protocol with slight adaptations specific to microtissues. In brief, supernatant was removed and lysis of microtissues initiated by adding 40 μl diluted CellTiter-Glo Reagent (1:2 in PBS). The cell lysis was enhanced by pipetting up and down prior to transfer into an opaque white assay plate. […] The acquired data was normalized to the non-treated control:
To generate the tumor relapse index the growth profiles of the pulsed treatment groups were compared to the growth curves of the vehicle-only treated microtissues and the lowest maximum concentration treated group (FIG. 7). The impact of the pulsed drug treatment was set relative to the control and the maximum response of the respective drug (FIGS. 5 and 6).
To determine a tumor relapse index, the sizes (e.g., diameter, volume or area of an optical cross section) of at least one 3-dimensional cell culture or tissue in the continuous treatment group, the pulsed treatment group and the untreated control group are determined at a given point of time (endpoint measurement).
Then, (i) the difference (e.g., d2) between the size of at least one 3-dimensional cell culture or tissue in the continuous treatment group and at least one 3-dimensional cell culture or tissue in the pulsed treatment group is formed, and
(ii) the difference (e.g., d1) between the size of at least one 3-dimensional cell culture or tissue in the pulsed treatment group and at least one 3-dimensional cell culture or tissue in the untreated control group is formed.
Then, a quotient is formed out of the two differences (e.g., d1/d^2) to deliver a tumor relapse index. Such tumor relapse indices can be determined for different inhibitory concentration of the respective anti-cancer agents.

| SMILES | IC20 [1] [nM] | IC50 [1] [nM] | capacity to re-grow after drug removal ([2]; 50 nM treated group compared with 100 nM treated group) | ReI at IC50, times higher than at IC20 [2] [times] | tumor relapse index (ReI) ([2]; at IC20 concentration) | tumor relapse index (ReI) ([2]; at IC50 concentration) | growth after the 5-day treatment [2] | tumor re-growth after removing the compound after a 5-day treatment [2] | phenotype of re-growth after drug removal [2] | re-growth compared to continuous treated counterparts ([2]; 125 nM and 500 nM, drug removed after 5 days, size and intra-tissue ATP) | tumor removal ([2]; high concentrations, after 5 days) |
| --- | --- | --- | --- | --- | --- | --- | --- | --- | --- | --- | --- |
| COc1cccc2c1C(=O)c1c(O)c3c(c(O)c1C2=O)C[C@@](O)(C(=O)CO)C[C@@H]3O[C@H]1C[C@H](N)[C@H](O)[C@H](C)O1 [doxorubicin] | 50 | 200 | stronger capacity to re-grow | 6.6 | 0.32 | 2.1 | the tumor was still able to grow | tumor re-growth was observed | regrew symmetrically | – | – |
| CN[C@@H]1C[C@H]2O[C@@](C)([C@@H]1OC)n1c3ccccc3c3c4c(c5c6ccccc6n2c5c31)C(=O)NC4 [staurosporine] | 31.2 | – | – | – | – | 0.56 | growth occurred even in a similar extent as in the non-treated control culture | tumor re-growth was observed | regrew symmetrically | re-grew substantially | – |
| CC(=O)O[C@H]1C(=O)[C@@]2(C)[C@H]([C@H](OC(=O)c3ccccc3)[C@]3(O)C[C@H](OC(=O)[C@H](O)[C@@H](NC(=O)c4ccccc4)c4ccccc4)C(C)=C1C3(C)C)[C@]1(OC(C)=O)CO[C@@H]1C[C@@H]2O [taxol] | 6.25 | 12.5 | – | 26 | 0.59 | 15.3 | hardly any growth could be observed | tumor re-growth was observed | regrew side-specific | – | nearly complete tumor removal |
